Target: FXR (Homo sapiens (Human), UniProt Q96RI1)
Assay: FXR EC50 (FXR agonist activity reported with each example)
Format: cell-based

Sequence of FXR (Q96RI1 262-486): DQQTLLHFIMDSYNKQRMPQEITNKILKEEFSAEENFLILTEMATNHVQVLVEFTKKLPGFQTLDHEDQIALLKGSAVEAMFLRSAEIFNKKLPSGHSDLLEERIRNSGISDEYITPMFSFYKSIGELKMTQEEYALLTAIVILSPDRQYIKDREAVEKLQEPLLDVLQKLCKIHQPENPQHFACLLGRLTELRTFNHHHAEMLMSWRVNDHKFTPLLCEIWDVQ

Row | Compound | EC50 [µM]
1 | O=C(O)c1cc(-c2noc(C34CCC(OCc5c(-c6c(Cl)cncc6Cl)noc5C5CC5)(CC3)CC4)n2)cc(C(F)(F)F)n1 [Example 264, 4-(5-(4-((5-cyclopropyl-3-(3,5-dichloropyridin-4-yl)isoxazol-4-yl)methoxy)bicyclo[2.2.2]octan-1-yl)-1,2,4-oxadiazol-3-yl)-6-(trifluoromethyl)picolinic acid] | 0.18
2 | O=C(O)c1ccc(C(F)(F)F)c2nc(C34CCC(OCc5c(-c6c(Cl)cncc6Cl)noc5C5CC5)(CC3)CC4)ccc12 [Example 398] | 0.03
3 | O=C(O)c1ccc2nc(C34CCC(OCc5c(-c6c(Cl)cccc6Cl)noc5C5CC5)(CC3)CC4)ccc2n1 [Example 136, 6-(4-((5-cyclopropyl-3-(2,6-dichlorophenyl)isoxazol-4-yl)methoxy)bicyclo[2.2.2]octan-1-yl)-1,5-naphthyridine-2-carboxylic acid] | 0.036
4 | COc1ccc(-c2noc(C34CCC(OCc5c(-c6c(Cl)cncc6Cl)noc5C5CC5)(CC3)CC4)n2)cc1C(=O)O [Example 69, 5-(5-(4-((5-Cyclopropyl-3-(3,5-dichloropyridin-4-yl)isoxazol-4-yl)methoxy)bicyclo[2.2.2]octan-1-yl)-1,2,4-oxadiazol-3-yl)-2-methoxybenzoic acid] | 0.056
5 | COc1cc(-c2noc(C34CCC(OCc5c(-c6c(Cl)cnn6C)noc5C5CC5)(CC3)CC4)n2)cc(C(=O)O)n1 [Example 275, 4-(5-(4-((3-(4-chloro-1-methyl-1H-pyrazol-5-yl)-5-cyclopropylisoxazol-4-yl)methoxy)bicyclo[2.2.2]octan-1-yl)-1,2,4-oxadiazol-3-yl)-6-methoxypicolinic acid] | 2.5
6 | O=C(O)c1cccc(/C=C/C23CCC(COCc4c(-c5ccccc5OC(F)(F)F)noc4C4CC4)(CC2)CO3)c1 [Example 197, (E)-3-(2-(4-(((5-cyclopropyl-3-(2-(trifluoromethoxy)phenyl)isoxazol-4-yl)methoxy)methyl)-2-oxabicyclo[2.2.2]octan-1-yl)vinyl)benzoic acid] | 0.09
7 | COc1nc(C(=O)O)cc2ccc(C#CC34CCC(OCc5c(-c6c(Cl)cncc6Cl)noc5C5CC5)(CC3)CC4)cc12 [Example 521, 7-((4-((5-cyclopropyl-3-(3,5-dichloropyridin-4-yl)isoxazol-4-yl)methoxy)bicyclo[2.2.2]octan-1-yl)ethynyl)-1-methoxyisoquinoline-3-carboxylic acid] | 0.04
8 | O=C(O)c1ccn2c(C#CC34CCC(OCc5c(-c6c(Cl)cncc6Cl)noc5C5CC5)(CC3)CC4)cnc2c1 [Example 393] | 0.27
9 | O=C(O)c1ccc(-c2noc(C34CCC(OCc5c(-c6ccccc6C(F)(F)F)noc5C5CC5)(CC3)CC4)n2)cn1 [Example 46] | 2.7
10 | O=C(O)c1ccc2c(c1)CN(CC13CCC(OCc4c(-c5c(Cl)cccc5Cl)noc4C4CC4)(CC1)CC3)CC2 [Example 362, 2-((4-((5-cyclopropyl-3-(2,6-dichlorophenyl)isoxazol-4-yl)methoxy)bicyclo[2.2.2]octan-1-yl)methyl)-1,2,3,4-tetrahydroisoquinoline-7-carboxylic acid] | 0.17
11 | CCOc1cc(C(=O)O)nc2cc(F)c(OCC34CCC(OCc5c(-c6c(Cl)cncc6Cl)noc5C5CC5)(CC3)CC4)cc12 [Example 313, 6-((4-((5-cyclopropyl-3-(3,5-dichloropyridin-4-yl)isoxazol-4-yl)methoxy)bicyclo[2.2.2]octan-1-yl)methoxy)-4-ethoxy-7-fluoroquinoline-2-carboxylic acid] | 0.048
12 | O=C(O)c1cc(-c2noc(C34CCC(/C=C/c5c(-c6c(Cl)cncc6Cl)noc5C5CC5)(CC3)CO4)n2)cc(C(F)(F)F)c1 [Example 478, (E)-3-(5-(4-(2-(5-cyclopropyl-3-(3,5-dichloropyridin-4-yl)isoxazol-4-yl)vinyl)-2-oxabicyclo[2.2.2]octan-1-yl)-1,2,4-oxadiazol-3-yl)-5-(trifluoromethyl)benzoic acid] | 0.12
13 | COC(=O)c1cc(OC(F)F)cc(-c2noc(C34CCC(/C=C/c5c(-c6c(Cl)cncc6Cl)noc5C5CC5)(CC3)CC4)n2)c1 [Example 443, (E)-methyl 3-(5-(4-(2-(5-cyclopropyl-3-(3,5-dichloropyridin-4-yl)isoxazol-4-yl)vinyl)bicyclo[2.2.2]octan-1-yl)-1,2,4-oxadiazol-3-yl)-5-(difluoromethoxy)benzoate] | 0.049
14 | COC1CN(c2cc(C(=O)O)nc3ccc(OCC45CCC(OCc6c(-c7c(Cl)cncc7Cl)noc6C6CC6)(CC4)CC5)cc23)C1 [Example 329, 6-((4-((5-cyclopropyl-3-(3,5-dichloropyridin-4-yl)isoxazol-4-yl)methoxy)bicyclo[2.2.2]octan-1-yl)methoxy)-4-(3-methoxyazetidin-1-yl)quinoline-2-carboxylic acid] | 1.4
15 | Cc1cc(C#CC23CCC(OCc4c(-c5c(Cl)cncc5Cl)noc4C4CC4)(CC2)CC3)cnc1C(=O)O [Example 388] | 0.055
16 | O=C(O)c1cnc2ccc(OCC34CCC(OCc5c(-c6c(Cl)cncc6Cl)noc5C5CC5)(CC3)CC4)nn12 [Example 466, 6-((4-((5-cyclopropyl-3-(3,5-dichloropyridin-4-yl)isoxazol-4-yl)methoxy)bicyclo[2.2.2]octan-1-yl)methoxy)imidazo[1,2-b]pyridazine-3-carboxylic acid] | 0.39
17 | COc1c(C#CC23CCC(OCc4c(-c5c(Cl)cncc5Cl)noc4C4CC4)(CC2)CC3)cccc1C(=O)O [Example 381] | 0.22
18 | COCCOc1cc(OCC23CCC(OCc4c(-c5c(Cl)cncc5Cl)noc4C4CC4)(CC2)CC3)cnc1C(=O)O [Example 336] | 0.16

Row | Compound | EC50 [µM]
19 | CC(C)(C(=O)O)c1ccc(C23CCC(/C=C/c4c(-c5c(Cl)cncc5Cl)noc4C4CC4)(CC2)CO3)cc1 [Example 482, (E)-2-(4-(4-(2-(5-cyclopropyl-3-(3,5-dichloropyridin-4-yl)isoxazol-4-yl)vinyl)-2-oxabicyclo[2.2.2]octan-1-yl)phenyl)-2-methylpropanoic acid] | 0.95
20 | O=C(O)c1cncc(-c2noc(C34CCC(OCc5c(-c6ccccc6C(F)(F)F)noc5C5CC5)(CC3)CC4)n2)c1 [Example 11, 5-(5-(4-((5-cyclopropyl-3-(2-(trifluoromethyl)phenyl)isoxazol-4-yl)methoxy)bicyclo[2.2.2]octan-1-yl)-1,2,4-oxadiazol-3-yl)nicotinic acid] | 2.9
21 | O=C(O)c1ccc(OCC23CCC(OCc4c(-c5c(Cl)cccc5Cl)noc4C4CC4)(CC2)CC3)nc1 [Example 107, 6-((4-((5-cyclopropyl-3-(2,6-dichlorophenyl)isoxazol-4-yl)methoxy)bicyclo[2.2.2]octan-1-yl)methoxy)nicotinic acid] | 0.077
22 | O=C(O)c1cn2ccc(C#CC34CCC(OCc5c(-c6c(Cl)cncc6Cl)noc5C5CC5)(CC3)CC4)cc2n1 [Example 394] | 0.18
23 | O=C(O)c1cc(OCC23CCC(/C=C/c4c(-c5c(Cl)cncc5Cl)noc4C4CC4)(CC2)CC3)cc(OC(F)F)c1 [Example 444, (E)-3-((4-(2-(5-cyclopropyl-3-(3,5-dichloropyridin-4-yl)isoxazol-4-yl)vinyl)bicyclo[2.2.2]octan-1-yl)methoxy)-5-(difluoromethoxy)benzoic acid] | 0.016
24 | O=C(O)c1ccc(-c2noc(C34CCC(COCc5c(-c6c(Cl)cccc6Cl)noc5C5CC5)(CC3)CO4)n2)cc1 [Example 211] | 0.98
25 | O=C(O)c1cccc2c1CN(C(=O)C13CCC(OCc4c(-c5c(Cl)cccc5Cl)noc4C4CC4)(CC1)CC3)CC2 [Example 146, 2-(4-((5-cyclopropyl-3-(2,6-dichlorophenyl)isoxazol-4-yl)methoxy)bicyclo[2.2.2]octane-1-carbonyl)-1,2,3,4-tetrahydroisoquinoline-8-carboxylic acid] | 3.1
26 | CC(C)Oc1ccc(C(=O)O)c2ccc(C34CCC(OCc5c(-c6c(Cl)cncc6Cl)noc5C5CC5)(CC3)CC4)nc12 [Example 391, 2-(4-((5-cyclopropyl-3-(3,5-dichloropyridin-4-yl)isoxazol-4-yl)methoxy)bicyclo[2.2.2]octan-1-yl)-8-isopropoxyquinoline-5-carboxylic acid] | 0.014
27 | Cn1cc(C(=O)O)c2ccc(OCC34CCC(OCc5c(-c6ccccc6OC(F)(F)F)noc5C5CC5)(CC3)CC4)cc21 [Example 84] | 0.32
28 | CC(C)COc1cc(C(=O)O)nc2ccc(OCC34CCC(OCc5c(-c6c(Cl)cncc6Cl)noc5C5CC5)(CC3)CC4)cc12 [Example 355] | 0.018
29 | O=C(O)c1cc(C#CC23CCC(OCc4c(-c5c(Cl)cncc5Cl)noc4C4CC4)(CC2)CC3)cc2[nH]ncc12 [Example 411] | 0.089
30 | O=C(O)c1cccc(-c2noc(C34CCC(/C=C\c5c(-c6c(Cl)cccc6Cl)noc5C5CC5)(CC3)CC4)n2)c1 [Example 163, (Z)-3-(5-(4-(2-(5-cyclopropyl-3-(2,6-dichlorophenyl)isoxazol-4-yl)vinyl)bicyclo[2.2.2]octan-1-yl)-1,2,4-oxadiazol-3-yl)benzoic acid] | 0.211
31 | O=C(O)c1cc(F)c2nc(C34CCC(OCc5c(-c6c(Cl)cncc6Cl)noc5C5CC5)(CC3)CC4)ccc2c1 [Example 369] | 0.041
32 | O=C(O)c1cccc(-c2nc(C34CCC(OCc5c(-c6ccccc6C(F)(F)F)noc5C5CC5)(CC3)CC4)no2)c1 [Example 20, 3-(3-(4-((5-cyclopropyl-3-(2-(trifluoromethyl)phenyl)isoxazol-4-yl)methoxy)bicyclo[2.2.2]octan-1-yl)-1,2,4-oxadiazol-5-yl)benzoic acid] | 0.51
33 | O=C(O)c1cc(OC2CCC2)c2cc(OCC34CCC(OCc5c(-c6c(Cl)cncc6Cl)noc5C5CC5)(CC3)CC4)ccc2n1 [Example 344] | 0.017
34 | O=C(O)c1cnn(CC23CCC(OCc4c(-c5c(Cl)cccc5Cl)noc4C4CC4)(CC2)CC3)c1 [Example 76, 1-((4-((5-cyclopropyl-3-(2,6-dichlorophenyl)isoxazol-4-yl)methoxy)bicyclo[2.2.2]octan-1-yl)methyl)-1H-pyrazole-4-carboxylic acid] | 0.29
35 | NC(=O)c1noc(C23CCC(OCc4c(-c5c(Cl)cccc5Cl)noc4C4CC4)(CC2)CC3)n1 [Example 74, 5-(4-((5-cyclopropyl-3-(2,6-dichlorophenyl)isoxazol-4-yl)methoxy)bicyclo[2.2.2]octan-1-yl)-1,2,4-oxadiazole-3-carboxamide] | 0.52

From patent publication US10730863B2, “Bridged bicyclic compounds as farnesoid X receptor modulators” (BRISTOL-MYERS SQUIBB COMPANY, priority 2017, dated 2020)
